# Laboratory results taken from patent US12097210B2, “Concomitant administration of glucocorticoid receptor modulators and CYP3A inhibitors” (Corcept Therapeutics, Inc., priority 2017, dated 2024).
# Key:
# [1] = Example 3: cross-study comparison of exposure with historic study of 1200 mg mifepristone OD; type: in vivo, human; details: Test: Day 17, 600 mg mifepristone OD + 200 mg Ketoconazole BID; Reference: historic study Day 7, 1200 mg mifepristone OD alone; after 34% fat meal
# [2] = Example 3: effect of ketoconazole 200 mg twice daily on PK of mifepristone 600 mg once daily and metabolites, with food; type: in vivo, human; details: for concentrations on Day 17 compared with Day 12: 600 mg mifepristone daily with 200 mg ketoconazole twice daily vs mifepristone alone; for Ratio % Test/Reference, AUC0-24 / Ratio % Test/Reference, Cmax: Test: Day 17, 600 mg mifepristone OD + 200 mg Ketoconazole BID, Reference: Day 12, 600 mg mifepristone OD, geometric mean ratio
# Method: (§1) A single dose of ketoconazole was administered on Day −1.
# (§2) The study was a two period study design.
# Concentrations of RU 42633 and RU 42848 were similar on Day 17 and Day 12.
# clinical = details: male, human, in vivo
# Method: This study was conducted in accordance with Good Clinical Practice under the guidance of an Institutional Review Board and in accordance with applicable local legal and regulatory requirements.
# KORLYM® was supplied in 300 mg tablets for oral administration. Three or four tablets were administered once daily (OD) to provide either the 900 mg or 1200 mg per day dose.
# Itraconazole was supplied • in 100 mg capsules for oral administration. Two capsules were administered once daily (OD) to provide the 200 mg per day dose.
# All drug administrations were oral and were given after the morning meal.
# The inclusion criteria required, among other criteria, that the subjects be healthy male subjects between the ages of 18 and 65, weigh more than 110 pounds, and have a body mass index (BMI) of 18 to 32 kg/m^2. The design included a Screening Period of up to 3 weeks (subjects were screened at a time between days −21 to −1 prior to the first treatment period), three 14-day treatment periods, and a Follow-Up (FU) Period of 14 days for safety observation.
# Subjects meeting the inclusion criteria (n=22) were administered drug daily and blood samples were taken on the days indicated below during Periods 1-3 and on day 43 of the follow-up period.
# Subjects presented at the Clinical Research Unit (CRU) after an 8-hour overnight fast, then predose PK samples were taken and other evaluations (predose electrocardiograms (ECGs), plasma cortisol and ACTH, serum chemistry tests) were performed. […] On the specific days indicated above, additional blood draws for determining 24-hour PK profiles were performed.
# Pharmacokinetic (PK) parameters measured and computed included AUC (area under the concentration−time curve), AUC0-24 (AUC values from time 0 to 24 hours postdose), Cmax (maximum concentration), and Css (average steady-state concentration, calculated as AUC0-24/24).
# [3] = Example 3: effect of co-administration with mifepristone on ketoconazole PK; type: in vivo, human
# Method: as §1, §2
# [4] = Example 2: PK of ketoconazole 400 mg single dose on Day 8 of mifepristone regimen; type: in vivo, human; details: single 400 mg ketoconazole dose on Day 8
# Text: (§3) Subjects were discharged on Day 11.
# (§4) Subjects were discharged on Day 11. Subjects in both cohorts returned to study center on Day 13 for safety monitoring, collection of the 120-hour PK draw, and completion of the Termination Visit procedures, followed by discharge from the study. To the extent possible, any adverse events deemed study drug-related and that were ongoing at the time of discharge from the study were followed-up to resolution or until a determination was made that the unresolved event was stable.
# (§5) DURATION OF TREATMENT: Up to a total of 28 days, including up to 2 weeks screening, dosing on Days 1-8, safety observation, and PK sample collection through Day 13.
# (§6) Additionally, comparisons were made between the PK results of cohort 1 and 2. Pharmacokinetic parameters Cmax, T½ and total AUC were calculated for plasma concentrations of ketoconazole following the single dose on Day 8. Descriptive statistics (count, mean, median, standard deviation, minimum, maximum, and % coefficient of variation) were provided. Ketoconazole concentrations were listed and summarized. GM means of Cmax and total AUC were compared for the single dose in this study to the combined data of reported 400 mg single doses of ketoconazole of healthy subjects from the literature.
# CYP3A = details: 38 published studies, 411 subjects; concomitantly administered CYP3A inhibitor; cited from earlier work
# [5] = Example 2: effect of a 400 mg single dose of ketoconazole on PK of an 8-day regimen of 300 mg or 600 mg OD mifepristone after moderate fat breakfast; type: in vivo, human; details: 300 or 600 mg OD mifepristone
# Method: This was an open-label study in healthy male subjects. […] The 400 mg single dose of ketoconazole was given to all subjects on day 8.
# METHODOLOGY: Twelve subjects were enrolled, six in Cohort 1 and 6 in Cohort 2.
# as §3, §4
# DIAGNOSIS AND MAIN […] FOR INCLUSION: Healthy male volunteers between the ages of 18 to 45 years of age with a body mass index (BMI) ranging between 19 and 32 kg/m2 and a weight of at least 60 kg (132 lbs) were enrolled. Subjects had no clinically significant abnormal findings on the physical examination, ECG, blood pressure, heart rate, medical history, or clinical laboratory results during screening. The QTc interval at screening was less than 450 msec.
# as §5, §6
# [6] = 600 mg mifepristone OD + 200 mg ketoconazole BID
# [7] = 400 mg ketoconazole (200 mg twice per day) with 600 mg mifepristone per day
# [8] = Test: Day 17, 600 mg mifepristone OD + 200 mg Ketoconazole BID, Reference: Day −1, 200 mg Ketoconazole single dose
SMILES,"Ratio % Test/Ref, AUC0-24 [1] [%]","Ratio % Test/Ref, Cmax [1] [%]","change in exposure on co-administration with ketoconazole [2, 6]",concentrations on Day 17 compared with Day 12 [2],"Ratio % Test/Reference, AUC0-24 [2] [%]","Ratio % Test/Reference, Cmax [2] [%]",AUC(0-t) (clinical; 900 mg) [ng·h/mL],Cmax (clinical; 900 mg) [ng/mL],AUC(0-t) (clinical; 1200 mg) [ng·h/mL],Cmax (clinical; 1200 mg) [ng/mL],increase of plasma levels (AUC) of orally administered midazolam (CYP3A),other results
"CC#C[C@]1(O)CC[C@H]2[C@@H]3CCC4=CC(=O)CCC4=C3[C@@H](c3ccc(NC)cc3)C[C@@]21C [RU 42633, (8S,11R,13S,14S,17S)-17-hydroxy-13-methyl-11-[4-(methylamino)phenyl]-17-prop-1-ynyl-1,2,6,7,8,11,12,14,15,16-decahydrocyclopenta[a]phenanthren-3-one]",91.34,96.31,little change in exposure,similar,102.33,105.73,40300,1970,45800,2160,,
"CC(=O)N1CCN(c2ccc(OCC3COC(Cn4ccnc4)(c4ccc(Cl)cc4Cl)O3)cc2)CC1 (stereo not drawn) [Ketoconazole, 1-acetyl-4-[4-[[2-(2,4-dichlorophenyl)-2-[(1H-imidazol-1-yl)-methyl]-1,3-dioxolan-4-yl]methoxy]phenyl]piperazine]",,,,,,,,,,,more than 11 fold,"increase in ketoconazole AUC with concomitant mifepristone [3, 7]: 253%; increase in ketoconazole Cmax with concomitant mifepristone [3, 7]: 365%; Ratio % Test/Reference, AUC [3, 8]: 365.36%; Ratio % Test/Reference, Cmax [3, 8]: 252.71%; ketoconazole half-life on either mifepristone regimen [4]: not appreciably different"
CC[C@H]1OC(=O)[C@H](C)[C@@H](O[C@H]2C[C@@](C)(OC)[C@@H](O)[C@H](C)O2)[C@H](C)[C@@H](O[C@@H]2O[C@H](C)C[C@H](N(C)C)[C@H]2O)[C@](C)(OC)C[C@@H](C)C(=O)[C@H](C)[C@@H](O)[C@]1(C)O [clarithromycin],,,,,,,,,,,more than 6 fold,
"CC#C[C@]1(O)CC[C@H]2[C@@H]3CCC4=CC(=O)CCC4=C3[C@@H](c3ccc(N)cc3)C[C@@]21C [RU 42848, (8S,11R,13S,14S,17S)-11-(4-aminophenyl)-17-hydroxy-13-methyl-17-prop-1-ynyl-1,2,6,7,8,11,12,14,15,16-decahydrocyclopenta[a]phenanthren-3-one]",81.43,82.45,little change in exposure,similar,94.88,95.48,33900,1630,36500,1770,,"trough concentrations through the start of ketoconazole administration (Day 13) ([2]; FIG. 1, 600 mg mifepristone OD): increasing day-by-day"
CCC(C)n1ncn(-c2ccc(N3CCN(c4ccc(OCC5COC(Cn6cncn6)(c6ccc(Cl)cc6Cl)O5)cc4)CC3)cc2)c1=O (stereo not drawn) [itraconazole],,,,,,,,,,,more than 7 fold,
"CN(C)c1ccc([C@H]2C[C@@]3(C)[C@@H](CC[C@@]3(O)C#CCO)[C@@H]3CCC4=CC(=O)CCC4=C32)cc1 [RU 42698, (8S,11R,13S,14S,17S)-11-[4-(dimethylamino)phenyl]-17-hydroxy-17-(3-hydroxyprop-1-ynyl)-13-methyl-1,2,6,7,8,11,12,14,15,16-decahydrocyclopenta[a]phenanthren-3-one]",118.18,116.55,,higher,166.86,169.13,15100,755,16900,853,,"mean increase in exposure on co-administration with ketoconazole [2, 6]: approximately 70%; share of the total steady-state AUC0-24 of mifepristone, RU42633, RU42698, RU42848 ([2]; in the presence of ketoconazole): 13%; share of the total steady-state AUC0-24 of mifepristone, RU42633, RU42698, RU42848 ([2]; mifepristone alone): 9%; mean metabolite exposure compared with mifepristone [5]: lower"
